Laboratory results as given in patent publication US11725036B2, “Modified lipidated relaxin B chain peptides and their therapeutic use” (Sanofi, priority 2018, dated 2023).
Starred links: 1 amine or outer side, 2 acyl side, 3 side chain; linkers in the order of their positions; H or OH if unused. Non-standard residues stand in square brackets, D forms with d. Residues, ends and D or L forms follow the SMILES beside them. Groups on a side chain read outwards from the residue. *: point of attachment. X1 = CCCCCCCCCCCCCCCC(=O)N[C@@H](CCC(=O)N[C@@H](CCC(=O)N[C@@H](CCC(=O)NCCCOCCOCCOCCCNC(=O)CCC(=O)NCCCOCCOCCOCCCNC(=O)CCC(=O)NCCCOCCOCCOCCCN*)C(=O)O)C(=O)O)C(=O)O; X6 = CCCCCCCCCCCCCC(=O)N[C@@H](CCC(=O)N[C@@H](CCC(=O)N[C@@H](CCC(=O)NCCCOCCOCCOCCCNC(=O)CCC(=O)NCCCOCCOCCOCCCNC(=O)CCC(=O)NCCCOCCOCCOCCCN*)C(=O)O)C(=O)O)C(=O)O; Suc = O=C(CCC(=O)[*:2])[*:1]; αMeK = C[C@](N)(CCCCN)C(=O)O; Aib = CC(C)(N)C(=O)O

Target: T1, RXFP1 (Homo sapiens, UniProt Q9HBX9)
T1 construct: OVCAR5 cells expressing endogenous RXFP1; endogenous in cells; host or cells: OVCAR5
T1 sequence (Q9HBX9 1-757): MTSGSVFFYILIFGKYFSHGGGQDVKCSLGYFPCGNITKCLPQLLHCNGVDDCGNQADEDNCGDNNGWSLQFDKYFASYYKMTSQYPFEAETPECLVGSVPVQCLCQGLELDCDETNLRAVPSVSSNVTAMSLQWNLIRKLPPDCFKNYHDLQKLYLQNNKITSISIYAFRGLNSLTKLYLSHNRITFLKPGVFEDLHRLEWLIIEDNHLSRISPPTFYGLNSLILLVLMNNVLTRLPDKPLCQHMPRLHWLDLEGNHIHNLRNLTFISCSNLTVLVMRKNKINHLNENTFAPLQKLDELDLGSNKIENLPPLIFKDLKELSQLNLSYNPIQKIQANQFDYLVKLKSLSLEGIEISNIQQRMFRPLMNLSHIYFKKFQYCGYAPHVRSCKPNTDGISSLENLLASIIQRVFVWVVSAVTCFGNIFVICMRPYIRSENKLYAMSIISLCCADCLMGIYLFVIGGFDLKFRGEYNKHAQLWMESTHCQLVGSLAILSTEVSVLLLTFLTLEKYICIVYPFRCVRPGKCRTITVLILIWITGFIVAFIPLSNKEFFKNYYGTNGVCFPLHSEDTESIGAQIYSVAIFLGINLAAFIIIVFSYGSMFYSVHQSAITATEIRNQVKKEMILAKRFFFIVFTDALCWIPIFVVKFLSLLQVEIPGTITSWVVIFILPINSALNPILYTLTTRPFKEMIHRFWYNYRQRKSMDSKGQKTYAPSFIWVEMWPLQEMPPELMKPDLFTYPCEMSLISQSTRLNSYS
Assay: OVCAR5 cAMP assay (HTRF)
Type: cell-based
Conditions: for Emax: OVCAR 5 cells, maximal cAMP relative to H2-relaxin; for EC50: OVCAR 5 cells expressing endogenous RXFP1, cAMP readout
Procedure, shortened: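 Endogenous RXFP1 in OVCAR5 cells, pretreated 40 min at 37° C with 1 mM IBMX, then exposed to increasing peptide concentrations in serum-free medium for 30 min at 37° C. cAMP read by HTRF; EC50 by variable-slope sigmoidal fit, Emax as % of H2-relaxin maximal cAMP in same run.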

SMILES	Emax	EC50
CCCCCCCCCCCCCCCC(=O)N[C@@H](CCC(=O)N[C@@H](CCC(=O)N[C@@H](CCC(=O)NCCCOCCOCCOCCCNC(=O)CCC(=O)NCCCOCCOCCOCCCNC(=O)CCC(=O)NCCCOCCOCCOCCCNC(=O)CCC(=O)NCCCC[C@H](NC(=O)CNC(=O)[C@H](CCC(=O)O)NC(=O)C(C)(C)NC(=O)C(C)(C)NC(=O)[C@@H](NC(=O)[C@H](CCCCNC(C)=O)NC(=O)[C@H](C)NC(=O)[C@H](CCCNC(=N)N)NC(=O)[C@@H](NC(=O)[C@H](CCCCN)NC(=O)[C@H](CCC(=O)O)NC(=O)[C@H](CCCNC(=N)N)NC(=O)CNC(=O)[C@H](CCC(=O)O)NC(=O)[C@H](CC(C)C)NC(C)=O)C(C)C)[C@@H](C)CC)C(=O)N[C@@H](CO)C(=O)N[C@H](C(=O)N[C@@H](Cc1c[nH]c2ccccc12)C(=O)N[C@@H](CO)C(=O)NC(C)(C)C(=O)N[C@@H](CCCNC(=N)N)C(=O)N[C@@H](CCCNC(=N)N)C(=O)N[C@@H](CCCCNC(C)=O)C(N)=O)[C@@H](C)O)C(=O)O)C(=O)O)C(=O)O [compound 31] (Ac-LEGREKVRAK(Ac)I[Aib][Aib]EGK([Suc-X1])STWS[Aib]RRK(Ac)-NH2)	94%	–
CCCCCCCCCCCCCC(=O)N[C@@H](CCC(=O)N[C@@H](CCC(=O)N[C@@H](CCC(=O)NCCCOCCOCCOCCCNC(=O)CCC(=O)NCCCOCCOCCOCCCNC(=O)CCC(=O)NCCCOCCOCCOCCCNC(=O)CCC(=O)NCCCC[C@H](NC(=O)CNC(=O)[C@H](CCC(=O)O)NC(=O)C(C)(C)NC(=O)C(C)(C)NC(=O)[C@@H](NC(=O)[C@H](CCCCNC(C)=O)NC(=O)[C@H](C)NC(=O)[C@H](CCCNC(=N)N)NC(=O)[C@@H](NC(=O)[C@H](CCCCN)NC(=O)[C@H](CCC(=O)O)NC(=O)[C@H](CCCNC(=N)N)NC(=O)CNC(=O)[C@H](CCC(=O)O)NC(=O)[C@H](CC(C)C)NC(C)=O)C(C)C)[C@@H](C)CC)C(=O)N[C@@H](CO)C(=O)N[C@H](C(=O)N[C@@H](Cc1ccccc1)C(=O)N[C@@H](CO)C(=O)N[C@@](C)(CCCCN)C(=O)N[C@@H](CCCNC(=N)N)C(=O)N[C@@H](C)C(=O)N[C@@H](CCCCNC(C)=O)C(N)=O)[C@@H](C)O)C(=O)O)C(=O)O)C(=O)O [compound 95] (Ac-LEGREKVRAK(Ac)I[Aib][Aib]EGK([Suc-X6])STFS[αMeK]RAK(Ac)-NH2)	91%	1.8 nM
CCCCCCCCCCCCCCCC(=O)N[C@@H](CCC(=O)N[C@@H](CCC(=O)N[C@@H](CCC(=O)NCCCOCCOCCOCCCNC(=O)CCC(=O)NCCCOCCOCCOCCCNC(=O)CCC(=O)NCCCOCCOCCOCCCNC(=O)CCC(=O)NCCCC[C@H](NC(=O)CNC(=O)[C@H](CCC(=O)O)NC(=O)C(C)(C)NC(=O)C(C)(C)NC(=O)[C@@H](NC(=O)[C@H](CCCCNC(C)=O)NC(=O)C(C)(C)NC(=O)[C@H](CCCNC(=N)N)NC(=O)[C@@H](NC(=O)[C@H](CCCNC(=N)N)NC(=O)[C@H](CCC(=O)O)NC(=O)[C@H](CCCNC(=N)N)NC(=O)CNC(=O)[C@H](CCC(=O)O)NC(=O)[C@H](CC(C)C)NC(C)=O)C(C)C)[C@@H](C)CC)C(=O)N[C@@H](CO)C(=O)N[C@H](C(=O)N[C@@H](Cc1c[nH]c2ccccc12)C(=O)N[C@@H](CO)C(=O)NC(C)(C)C(=O)N[C@@H](CCCNC(=N)N)C(=O)N[C@@H](CCCNC(=N)N)C(=O)N[C@@H](CCCCNC(C)=O)C(N)=O)[C@@H](C)O)C(=O)O)C(=O)O)C(=O)O [compound 85] (Ac-LEGRERVR[Aib]K(Ac)I[Aib][Aib]EGK([Suc-X1])STWS[Aib]RRK(Ac)-NH2)	92%	0.3 nM
CCCCCCCCCCCCCCCC(=O)N[C@@H](CCC(=O)N[C@@H](CCC(=O)N[C@@H](CCC(=O)NCCCOCCOCCOCCCNC(=O)CCC(=O)NCCCOCCOCCOCCCNC(=O)CCC(=O)NCCCOCCOCCOCCCNC(=O)CCC(=O)NCCCC[C@H](NC(=O)CNC(=O)[C@H](CCC(=O)O)NC(=O)C(C)(C)NC(=O)C(C)(C)NC(=O)[C@@H](NC(=O)[C@H](CCCCNC(C)=O)NC(=O)[C@H](C)NC(=O)[C@H](CCCNC(=N)N)NC(=O)[C@@H](NC(=O)[C@H](CCCCN)NC(=O)[C@H](CCC(=O)O)NC(=O)[C@H](CCCNC(=N)N)NC(=O)CNC(=O)[C@H](CCC(=O)O)NC(=O)[C@H](CC(C)C)NC(C)=O)C(C)C)[C@@H](C)CC)C(=O)N[C@@H](CO)C(=O)N[C@H](C(=O)N[C@@H](Cc1ccccc1)C(=O)N[C@@H](CO)C(=O)NC(C)(C)C(=O)N[C@@H](CCCNC(=N)N)C(=O)N[C@@H](C)C(=O)N[C@@H](CCCCNC(C)=O)C(N)=O)[C@@H](C)O)C(=O)O)C(=O)O)C(=O)O [compound 2] (Ac-LEGREKVRAK(Ac)I[Aib][Aib]EGK([Suc-X1])STFS[Aib]RAK(Ac)-NH2)	99%	2.4 nM
CCCCCCCCCCCCCC(=O)N[C@@H](CCC(=O)N[C@@H](CCC(=O)N[C@@H](CCC(=O)NCCCOCCOCCOCCCNC(=O)CCC(=O)NCCCOCCOCCOCCCNC(=O)CCC(=O)NCCCOCCOCCOCCCNC(=O)CCC(=O)NCCCC[C@H](NC(=O)CNC(=O)[C@H](CCC(=O)O)NC(=O)C(C)(C)NC(=O)C(C)(C)NC(=O)[C@@H](NC(=O)[C@H](CCCCNC(C)=O)NC(=O)[C@H](C)NC(=O)[C@H](CCCNC(=N)N)NC(=O)[C@@H](NC(=O)[C@H](CCCCN)NC(=O)[C@H](CCC(=O)O)NC(=O)[C@H](CCCNC(=N)N)NC(=O)CNC(=O)[C@H](CCC(=O)O)NC(=O)[C@H](CC(C)C)NC(C)=O)C(C)C)[C@@H](C)CC)C(=O)N[C@@H](CO)C(=O)N[C@H](C(=O)N[C@@H](Cc1ccccc1)C(=O)N[C@@H](CO)C(=O)N[C@@](C)(CCCCN)C(=O)N[C@@H](CCCNC(=N)N)C(=O)N[C@@H](C)C(=O)N[C@@H](CCCCN)C(N)=O)[C@@H](C)O)C(=O)O)C(=O)O)C(=O)O [compound 96] (Ac-LEGREKVRAK(Ac)I[Aib][Aib]EGK([Suc-X6])STFS[αMeK]RAK-NH2)	92%	0.88 nM
CCCCCCCCCCCCCCCC(=O)N[C@@H](CCC(=O)N[C@@H](CCC(=O)N[C@@H](CCC(=O)NCCCOCCOCCOCCCNC(=O)CCC(=O)NCCCOCCOCCOCCCNC(=O)CCC(=O)NCCCOCCOCCOCCCNC(=O)CCC(=O)NCCCC[C@H](NC(=O)CNC(=O)[C@H](CCC(=O)O)NC(=O)C(C)(C)NC(=O)C(C)(C)NC(=O)[C@@H](NC(=O)[C@H](CCCCNC(C)=O)NC(=O)[C@H](C)NC(=O)[C@H](CCCNC(=N)N)NC(=O)[C@@H](NC(=O)[C@H](CCCCN)NC(=O)[C@H](CCC(=O)O)NC(=O)[C@H](CCCNC(=N)N)NC(=O)CNC(=O)[C@H](CCC(=O)O)NC(=O)[C@H](CC(C)C)NC(C)=O)C(C)C)[C@@H](C)CC)C(=O)N[C@@H](CO)C(=O)N[C@H](C(=O)N[C@@H](Cc1c[nH]c2ccccc12)C(=O)NC(C)(C)C(=O)N[C@@H](CCCCN)C(=O)N[C@@H](CCCNC(=N)N)C(=O)N[C@@H](C)C(=O)N[C@@H](CCCCNC(C)=O)C(N)=O)[C@@H](C)O)C(=O)O)C(=O)O)C(=O)O [compound 35] (Ac-LEGREKVRAK(Ac)I[Aib][Aib]EGK([Suc-X1])STW[Aib]KRAK(Ac)-NH2)	91%	2.33 nM
CCCCCCCCCCCCCCCC(=O)N[C@@H](CCC(=O)N[C@@H](CCC(=O)N[C@@H](CCC(=O)NCCCOCCOCCOCCCNC(=O)CCC(=O)NCCCOCCOCCOCCCNC(=O)CCC(=O)NCCCOCCOCCOCCCNC(=O)CCC(=O)NCCCC[C@H](NC(=O)CNC(=O)[C@H](CCC(=O)O)NC(=O)[C@@H](NC(=O)C(C)(C)NC(=O)[C@@H](NC(=O)[C@H](CCCCNC(C)=O)NC(=O)[C@H](C)NC(=O)[C@H](CCCNC(=N)N)NC(=O)[C@@H](NC(=O)[C@H](CCCCN)NC(=O)[C@H](CCC(=O)O)NC(=O)[C@H](CCCNC(=N)N)NC(=O)CNC(=O)[C@H](CCC(=O)O)NC(=O)[C@H](CC(C)C)NC(C)=O)C(C)C)[C@@H](C)CC)[C@@H](C)CC)C(=O)N[C@@H](CO)C(=O)N[C@H](C(=O)N[C@@H](Cc1ccccc1)C(=O)N[C@@H](CO)C(=O)N[C@@](C)(CCCCN)C(=O)N[C@@H](CCCNC(=N)N)C(=O)N[C@@H](C)C(=O)N[C@@H](CCCCNC(C)=O)C(N)=O)[C@@H](C)O)C(=O)O)C(=O)O)C(=O)O [compound 84] (Ac-LEGREKVRAK(Ac)I[Aib]IEGK([Suc-X1])STFS[αMeK]RAK(Ac)-NH2)	95%	0.1 nM
